Data on 21 compounds can be found in the Kinase Knowledgebase extract (Sharma et al. 2016).

Assay [1] concerns the target MAPK14 (human) (UniProt Q16539). As to the kind of experiment: Inhibition of TNF-alpha Production from LPS Stimulated PBMC.
Assay [2] shares this target. In words: Inhibition of IL-1beta Production from LPS Stimulated PBMC.
Assay [3] shares this target. As to the kind of experiment: Inhibition of MAPK14 Kinase Activity.
Assay [4] has the same target. In words: Inhibition of IL-1 beta Release from LPS Stimulated Whole Blood Culture. The note with it: blood cells.
Assay [5] has the same target. In words: Inhibition of TNF-alpha Release in LPS Stimulated Whole Blood Culture. As to conditions: blood cells.

Each structure is given as a SMILES string.

Chain of MAPK14 (human) (Q16539 whole entry, looked up): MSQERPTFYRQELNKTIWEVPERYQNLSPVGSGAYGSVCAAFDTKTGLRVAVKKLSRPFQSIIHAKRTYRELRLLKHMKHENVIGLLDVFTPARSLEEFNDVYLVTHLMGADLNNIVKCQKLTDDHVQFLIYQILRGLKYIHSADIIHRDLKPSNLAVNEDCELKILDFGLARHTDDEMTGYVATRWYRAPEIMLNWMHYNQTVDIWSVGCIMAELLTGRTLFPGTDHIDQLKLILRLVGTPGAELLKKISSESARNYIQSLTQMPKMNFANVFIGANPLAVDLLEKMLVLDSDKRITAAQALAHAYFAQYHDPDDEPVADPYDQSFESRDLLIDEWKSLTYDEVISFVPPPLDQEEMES

Take `CSc1nc(-c2ccc(F)cc2)c(-c2ccnc(Nc3ccccc3)c2)[nH]1`: the half-maximal inhibitory concentration (IC50) (usually the concentration that gives 50% inhibition) is 340 nM at MAPK14 (human) [1] and 30 nM on MAPK14 (human) [2].

On to `CSc1nc(-c2ccc(F)cc2)c(-c2ccnc(NCc3ccc(Cl)c(Cl)c3)c2)[nH]1`, for which the IC50 at MAPK14 (human) [1] worked out at 720 nM; against MAPK14 (human) [2], 230 nM.

With `CC(Nc1cc(-c2[nH]c(SCc3ccccc3)nc2-c2ccc(F)cc2)ccn1)c1ccccc1` (centres undefined), the IC50 at MAPK14 (human) [1] was 2700 nM; on MAPK14 (human) [2], 45 nM.

On to `Fc1ccc(-c2nc(SCc3ccccc3)[nH]c2-c2ccnc(F)c2)cc1`, for which the IC50 on MAPK14 (human) [1] amounted to 40500 nM; against MAPK14 (human) [2], 2900 nM.

Consider `C[S+]([O-])c1ccc(CSc2nc(-c3ccc(F)cc3)c(-c3ccnc(Cl)c3)[nH]2)cc1` (centres undefined), for which the IC50 at MAPK14 (human) [1] amounted to 12000 nM; at MAPK14 (human) [2], 2100 nM.

Regarding `COc1ccc(CNc2cc(-c3[nH]c(SCc4ccccc4)nc3-c3ccc(F)cc3)ccn2)cc1`, the IC50 at MAPK14 (human) [1] came to 21000 nM; against MAPK14 (human) [2], 180 nM.

Turning to `Fc1ccc(-c2nc(SCc3ccccc3)[nH]c2-c2ccnc(Cl)c2)cc1`, the IC50 against MAPK14 (human) [1] was found to be 60000 nM; against MAPK14 (human) [2] it was 1800 nM.

Take `CSc1nc(-c2ccc(F)cc2)c(-c2ccnc(F)c2)[nH]1`: the IC50 against MAPK14 (human) [1] was 2800 nM; on MAPK14 (human) [2], 300 nM.

Take `CC(Nc1cc(-c2[nH]c(SCc3ccc([S+](C)[O-])cc3)nc2-c2ccc(F)cc2)ccn1)c1ccccc1` (centres undefined): the IC50 at MAPK14 (human) [1] was 910 nM; on MAPK14 (human) [2], 40 nM; at MAPK14 (human) [3], 270 nM; against MAPK14 (human) [4] it was 15700 nM; against MAPK14 (human) [5] it was 10000 nM.

In the case of `CSc1nc(-c2ccc(F)cc2)c(-c2ccnc(Cl)c2)[nH]1`, the half-inhibitory concentration (IC50) was 2200 nM against MAPK14 (human) [1] and 350 nM against MAPK14 (human) [2].

Turning to `CSc1nc(-c2ccc(F)cc2)c(-c2cc[nH]c(=O)c2)[nH]1`, the IC50 against MAPK14 (human) [1] came to 3100 nM; against MAPK14 (human) [2] it was 500 nM.

Turning to `COc1ccc(CNc2cc(-c3[nH]c(SC)nc3-c3ccc(F)cc3)ccn2)cc1`, the values for the IC50 against MAPK14 (human) [1] and against MAPK14 (human) [2] were 640 nM and 56 nM, respectively.

`C[S+]([O-])c1ccc(CSc2nc(-c3ccc(F)cc3)c(-c3ccnc(NCc4ccccc4)c3)[nH]2)cc1` (centres undefined): the results for the IC50 on MAPK14 (human) [1] and against MAPK14 (human) [2] were 2000 nM and 470 nM, respectively.

On to `CSc1nc(-c2ccc(F)cc2)c(-c2ccnc(NCc3ccccc3)c2)[nH]1`, for which the values for the half-maximal inhibitory concentration (IC50) against MAPK14 (human) [1], at MAPK14 (human) [2] and on MAPK14 (human) [3] were 630 nM, 108 nM and 650 nM, respectively.

Take `Fc1ccc(-c2nc(SCc3ccccc3)[nH]c2-c2ccnc(NCc3ccccc3)c2)cc1`: the IC50 against MAPK14 (human) [1] is 3200 nM; against MAPK14 (human) [2], 200 nM.

In the case of `CSc1nc(-c2ccc(F)cc2)c(-c2ccnc(NCc3ccc(C)cc3)c2)[nH]1`, the concentration for half-maximal inhibition (IC50) against MAPK14 (human) [1] was determined as 670 nM; against MAPK14 (human) [2], 85 nM; against MAPK14 (human) [4] it was 22300 nM; against MAPK14 (human) [5] it was 17300 nM.

For the compound `CSc1nc(-c2ccc(F)cc2)c(-c2ccnc(NCc3ccc(Cl)cc3)c2)[nH]1`, the IC50 was found to be 500 nM against MAPK14 (human) [1], 150 nM against MAPK14 (human) [2], 13300 nM at MAPK14 (human) [4] and 14800 nM at MAPK14 (human) [5].

For `CSc1nc(-c2ccc(F)cc2)c(-c2ccnc(OC(C)C)c2)[nH]1`, the IC50 came out at 4600 nM against MAPK14 (human) [1], 2700 nM on MAPK14 (human) [2], 2200 nM against MAPK14 (human) [4] and 7200 nM on MAPK14 (human) [5].

Turning to `C[S+]([O-])c1ccc(CSc2nc(-c3ccc(F)cc3)c(-c3ccnc(F)c3)[nH]2)cc1` (centres undefined), the values for the IC50 on MAPK14 (human) [1] and on MAPK14 (human) [2] were 6900 nM and 2450 nM, respectively.

As for `CSc1nc(-c2ccc(F)cc2)c(-c2ccnc(NCCc3ccccc3)c2)[nH]1`, the IC50 at MAPK14 (human) [1] came to 350 nM; on MAPK14 (human) [2] it was 31 nM; against MAPK14 (human) [4] it was 17100 nM; at MAPK14 (human) [5] it was 14900 nM.

`COc1cc(-c2[nH]c(SC)nc2-c2ccc(F)cc2)ccn1`: the results for the half-inhibitory concentration (IC50) at MAPK14 (human) [1] and at MAPK14 (human) [2] were 1900 nM and 150 nM, respectively.
